The subject of one assay is L1210. Kind of assay: Compound was tested in vitro for cytotoxicity against L1210 murine leukemia cells. Format: functional, cell-based. The settings on record: Mus musculus.
The target of the next assay is T1, DNA topoisomerase 1 (Homo sapiens, UniProt P11387).
T1 sequence (P11387 whole entry): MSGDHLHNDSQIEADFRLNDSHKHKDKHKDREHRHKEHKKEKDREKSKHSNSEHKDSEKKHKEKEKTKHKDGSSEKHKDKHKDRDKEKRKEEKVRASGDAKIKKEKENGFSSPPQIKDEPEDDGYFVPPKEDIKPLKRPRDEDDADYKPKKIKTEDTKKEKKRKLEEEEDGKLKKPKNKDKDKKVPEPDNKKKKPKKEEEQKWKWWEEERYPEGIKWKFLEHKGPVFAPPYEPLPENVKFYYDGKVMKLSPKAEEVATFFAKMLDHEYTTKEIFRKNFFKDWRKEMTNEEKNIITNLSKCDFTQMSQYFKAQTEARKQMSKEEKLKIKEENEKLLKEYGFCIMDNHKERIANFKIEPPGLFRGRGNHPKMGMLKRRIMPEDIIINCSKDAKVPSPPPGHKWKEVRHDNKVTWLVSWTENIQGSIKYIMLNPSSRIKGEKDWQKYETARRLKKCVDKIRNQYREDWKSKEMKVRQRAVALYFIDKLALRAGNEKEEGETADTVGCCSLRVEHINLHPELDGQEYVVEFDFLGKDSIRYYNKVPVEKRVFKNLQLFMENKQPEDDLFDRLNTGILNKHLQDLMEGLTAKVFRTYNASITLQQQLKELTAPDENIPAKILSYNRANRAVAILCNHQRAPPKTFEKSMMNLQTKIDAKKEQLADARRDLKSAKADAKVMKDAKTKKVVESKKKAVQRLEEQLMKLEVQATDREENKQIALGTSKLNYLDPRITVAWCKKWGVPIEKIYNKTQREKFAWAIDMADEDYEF
Kind of assay: Compound was tested in vitro for inhibition of topoisomerase I.

In assay [1] the test system is Mus musculus. Kind of assay: Activity against L1210 ascitic leukemia expressed as ratio of the median survival time of treated mice to that of untreated control X 100 after ip administration at a optimal dose of 10 mg/Kg. It counts as functional.
The test system of assay [2] is Mus musculus. Kind of assay: Activity against L1210 ascitic leukemia expressed as ratio of the median survival time of treated mice to that of untreated control X 100 after iv administration at a optimal dose of 15 mg/Kg. Format: functional.
The test system of assay [3] is Mus musculus. Kind of assay: Activity against L1210 ascitic leukemia expressed as ratio of the median survival time of treated mice to that of untreated control X 100 after ip administration at a optimal dose of 15 mg/Kg. Format: functional.
The subject of assay [4] is Mus musculus. Kind of assay: Activity against L1210 ascitic leukemia expressed as ratio of the median survival time of treated mice to that of untreated control X 100 after iv administration at a optimal dose of 20 mg/Kg. It counts as functional.
The subject of assay [5] is Mus musculus. Kind of assay: Activity against L1210 ascitic leukemia expressed as ratio of the median survival time of treated mice to that of untreated control X 100 after iv administration at a optimal dose of 2.5 mg/Kg. It counts as functional.
Assay [6] has as its system Mus musculus. Kind of assay: Activity against L1210 ascitic leukemia expressed as ratio of the median survival time of treated mice to that of untreated control X 100 after ip administration at a optimal dose of 1.5 mg/Kg. It counts as functional.

This note sets out measurements from ChEMBL document CHEMBL1128997, “Synthesis and antitumor activity of a new class of water soluble camptothecin derivatives” (Bioorg Med Chem Lett, 1996).

One may read the IC50 as the midpoint of a concentration-inhibition curve. A low value points to inhibition by little substance. With `CCc1c2c(nc3cccc(/N=C/N(C)C)c13)-c1cc3c(c(=O)n1C2)COC(=O)[C@]3(O)CC`, the IC50 in the assay with L1210 was 52.4 nM; on DNA topoisomerase 1, 3600 nM.
Turning to `CC[C@@]1(O)C(=O)OCc2c1cc1n(c2=O)Cc2cc3c(/N=C/N4CCOCC4)cccc3nc2-1`, the IC50 was found to be 125 nM in the assay on L1210 and 69000 nM against DNA topoisomerase 1.
By T/C is commonly meant the ratio of treated to control. With `CC[C@@]1(O)C(=O)OCc2c1cc1n(c2=O)Cc2cc3c(N/C=N/C)cccc3nc2-1.Cl`, the T/C with Mus musculus [1] amounted to 169%; with Mus musculus [2], 167%. For the same compound, the IC50 in the assay on L1210 was 52 nM; against DNA topoisomerase 1, 6600 nM.
Take `CC[C@@]1(O)C(=O)OCc2c1cc1n(c2=O)Cc2cc3c(NC=N)cccc3nc2-1.Cl`: the IC50 came to 92.5 nM with L1210 and 20400 nM on DNA topoisomerase 1. Besides, the T/C with Mus musculus [2] was 143%; with Mus musculus [3], 219%.
With `CC[C@@]1(O)C(=O)OCc2c1cc1n(c2=O)Cc2cc3c(/N=C/N(C)C)cccc3nc2-1.Cl`, the concentration for half-maximal inhibition (IC50) in the assay with L1210 turned out to be 108 nM; at DNA topoisomerase 1, 19200 nM. Further, the T/C is 200% in the assay on Mus musculus [4] and 175% with Mus musculus [3].
In the case of `CC[C@@]1(O)C(=O)OCc2c1cc1n(c2=O)Cc2cc3c(/N=C/N(C)c4ccccc4)cccc3nc2-1`, the IC50 was 28.1 nM in the assay with L1210 and 2200 nM at DNA topoisomerase 1.
With `CC[C@@]1(O)C(=O)OCc2c1cc1n(c2=O)Cc2cc3cc(/N=C/N(C)C)ccc3nc2-1`, the results for the IC50 with L1210 and at DNA topoisomerase 1 were 94.5 nM and 42000 nM, respectively.
Take `CC[C@@]1(O)C(=O)OCc2c1cc1n(c2=O)Cc2cc3c(/N=C(\C)N(C)C)cccc3nc2-1`: the IC50 stood at 689 nM in the assay with L1210 and 3500 nM against DNA topoisomerase 1.
With `CC[C@@]1(O)C(=O)OCc2c1cc1n(c2=O)Cc2cc3c(N)cccc3nc2-1` [9-AMINOCAMPTOTHECIN], the IC50 in the assay on L1210 is 12.7 nM; at DNA topoisomerase 1, 4200 nM. Also, the T/C in the assay on Mus musculus [5] was determined as 138%; in the assay on Mus musculus [6], 163%.
